The text below walks through data of paper PMC9865645, “The Impact of N^ε-Acryloyllysine Piperazides on the Conformational Dynamics of Transglutaminase 2” (International Journal of Molecular Sciences, 2023).

The structures appear in SMILES notation. Read-outs that look alike come from different tables or passages of the source.

Usually IC50 stands for the midpoint of a concentration-inhibition curve.

The target in data set [1] is T1, in-house produced N-terminally Twin-Strep-tagged hTGase 2 (Homo sapiens, UniProt P21980).
T1 construct: thrombin cleavage site (N); made in house; host or cells: E. coli BL21(DE3)
T1 sequence (P21980 1-687): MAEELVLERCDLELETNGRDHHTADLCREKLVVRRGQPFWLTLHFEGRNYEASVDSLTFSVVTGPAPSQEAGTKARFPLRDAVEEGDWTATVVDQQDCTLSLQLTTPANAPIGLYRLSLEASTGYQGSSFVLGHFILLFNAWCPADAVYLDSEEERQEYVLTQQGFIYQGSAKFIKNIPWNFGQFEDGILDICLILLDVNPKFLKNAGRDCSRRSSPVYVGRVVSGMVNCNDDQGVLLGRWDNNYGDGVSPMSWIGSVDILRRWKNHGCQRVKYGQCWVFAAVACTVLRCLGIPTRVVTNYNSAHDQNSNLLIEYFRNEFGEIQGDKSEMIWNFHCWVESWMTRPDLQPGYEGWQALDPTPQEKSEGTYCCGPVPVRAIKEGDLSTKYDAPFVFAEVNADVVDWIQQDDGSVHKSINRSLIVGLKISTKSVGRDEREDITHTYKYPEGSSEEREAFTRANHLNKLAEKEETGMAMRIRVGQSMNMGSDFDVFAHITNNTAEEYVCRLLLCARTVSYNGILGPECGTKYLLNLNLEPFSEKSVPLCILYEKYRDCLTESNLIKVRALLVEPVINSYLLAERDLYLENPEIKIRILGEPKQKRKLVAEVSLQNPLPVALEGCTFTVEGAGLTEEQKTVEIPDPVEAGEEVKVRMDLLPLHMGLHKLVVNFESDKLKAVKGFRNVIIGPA
In words: fluorescence anisotropy (FA)-based transamidase activity assay, in-house Twin-Strep-tagged hTGase 2. Type of data set: biochemical. The conditions noted are these: 5 min pre-incubation of enzyme and inhibitor; mean (SEM) of three experiments. An excerpt: The gene of hTGase 2 (Uniprot ID: P21980) with an N-terminal thrombin cleavage site was cloned into the pPSG-IBA105 vector containing the sequence for an N-terminal Twin-Strep-tag (IBA Lifesciences GmbH, Göttingen, Germany) to obtain the final plasmid pPSG-IBA105/TCS-hTGase 2. The plasmid construct was verified by DNA sequencing (Eurofins Genomics Germany GmbH) and then transformed into E. coli BL21(DE3) by the heat–shock method. hTGase 2-expressing E. coli cells were lysed by lysozyme treatment, and hTGase 2 was purified by affinity chromatography on an ÄKTA purifier UPC 10 FPLC equipped with a Strep-Tactin XT cartridge (GE Healthcare Europe GmbH, Freiburg, Germany). Identity and purity of self-produced hTGase 2 were verified by SDS-PAGE and Western Blot analysis, respectively. Protein concentration was determined according to Bradford. More detailed descriptions of the generation and characterization of the final plasmid construct pPSG-IBA105/TCS-hTGase 2 and the expression, purification, and characterization of the self-produced hTGase 2 protein will be published elsewhere (manuscript in preparation).
(§1) For the analysis of inhibitor 1 on self-produced hTGase 2, 2 µg/mL of the enzyme was used to guarantee comparability with the value reported by Wodtke et al., whereas all other experiments were performed with 5 µg/mL of either commercial or self-produced hTGase 2 (corresponding to 64.1 and 61.6 nM, respectively, when assuming 100% active protein). Parallel and perpendicular fluorescence intensities were measured over 1190 s in 35 s intervals (1) or over 1776 s in 48 s intervals (2, 3) and used to calculate the FA. Data of FA for the first 875 s (1) or 384 s (2, 3) were analyzed by linear regression, with slopes corresponding to enzymatic rates. Rates in the presence of inhibitor were normalized by dividing them by the respective rate in the absence of inhibitor, and normalized rates were analyzed according to Equation (S29) in Supplementary Materials to calculate values of IC50. Data analysis was performed with Microsoft Excel (Microsoft Office Professional Plus 2016, Microsoft® Corporation, USA) and GraphPad Prism version 5.03 or version 6.07 for Windows (GraphPad Software, La Jolla, CA, USA).

Data set [2] has as its target T2, commercial His6-hTGase 2 (Homo sapiens, UniProt P21980).
T2 construct: purchased Zedira (Darmstadt, Germany) T022, lot 0716a
T2 sequence (P21980 1-687): T1 sequence (P21980 1-687)
More on the design: method as in PMID 29664627. The following applies: 5 min pre-incubation of enzyme and inhibitor; mean (SEM); previously reported; cited from earlier work.

In data set [3] the target is T3, His6-hTGase 2 (Homo sapiens, UniProt P21980).
T3 construct: purchased Zedira (Darmstadt, Germany) T022, lot 0716a
T3 sequence (P21980 1-687): T1 sequence (P21980 1-687)
More on the design: method as in PMID 29664627. The conditions noted are these: mean (SEM); previously reported; cited from earlier work.

Data set [4] addresses T2, commercial His6-hTGase 2. In words: fluorescence anisotropy (FA)-based transamidase activity assay, commercial His6-hTGase 2. The data set is classed as biochemical. The conditions noted are these: 5 min pre-incubation of enzyme and inhibitor; mean (SEM) of three experiments. As for the experimental part: as §1
Data set [5] has as its target T3, His6-hTGase 2. The data set is described as follows: fluorimetric activity assay (substrate Z-Glu(HMC)-Gly-OH) for kinact/KI. Type of data set: biochemical. The conditions noted are these: mean (SEM) of two to four experiments.
Another data set concerns the target T4, hTGase 2 (Homo sapiens, UniProt P21980).
T4 construct: purchased Zedira (Darmstadt, Germany) T022, lot 0716a
T4 sequence (P21980 1-687): T1 sequence (P21980 1-687)
The data set is described as follows: switchSENSE dynamic mode: upward motion (relative inverse slope, friction) of hTGase 2-dsDNA lever. The conditions noted are these: 10 µM inhibitor with 1 mM Ca^2+, 0.1% DMSO, then pure TE40; non-directed labeling. As for the experimental part: Prior to the measurement of the switching kinetics of the differently conjugated hTGase 2, a complementary ssDNA without the enzyme (500 nM) was hybridized to the single-stranded capture strands on the chip electrodes to obtain the reference kinetics of the dsDNA lever. In addition, to determine the impact of CaCl2 and DMSO on the movement of the bare dsDNA lever, and thus on reference kinetics, its switching behavior was investigated in TE40, TE40 + 1 mM CaCl2, TE40 + 1 mM CaCl2 + 1% DMSO or TE40 + 1 mM CaCl2 + 0.1% DMSO.
Then, the dehybridization of the reference lever occurred during a regeneration step followed by the hybridization with an ssDNA-hTGase 2 conjugate (500 nM). Thereafter, the switching kinetics was recorded. […]
The impact on the hydrodynamic drag of the hTGase 2-functionalized lever was investigated under identical conditions for the three irreversible inhibitors 1–3: At first, the switching kinetics of the dsDNA lever and the hTGase 2-dsDNA conjugates were recorded. Secondly, the switching kinetics of the hTGase 2-dsDNA conjugates during and after Ca^2+ exposure were recorded using TE40 + 1 mM CaCl2 or TE40, respectively. […] In this process, the hydrodynamic drag was analyzed during the exposure to 10 µM inhibitor (for 6 min) dissolved in TE40 + 1 mM CaCl2 + 0.1% DMSO and to TE40 afterward. […]

Details of data set [6]: method as in doi:10.1039/DT9920002039, PMID 1868851. The conditions noted are these: cited from earlier work.

Consider `C=CC(=O)NCCCCC(NC(=O)Cc1ccccc1)C(=O)N1CCN(c2cccc(F)n2)CC1` (stereo not shown) [Compound 1], for which the values for the IC50 (in data set [1]; at commercial His6-hTGase 2 [2]) were 135 nM and 108 nM, respectively. For the same compound, at His6-hTGase 2 [3], the kinact/KI was 3850 (240) ^e M^−1s^−1.
As for `C=CC(=O)NCCCCC(NC(=O)Cc1ccccc1I)C(=O)N1CCN(c2ccc(C(F)(F)F)nc2)CC1` [Compound 3, N^α-(2-Iodophenylacetyl)-N^ε-acryloyl-L-lysin-4-(2-trifluoromethyl-5-yl)piperazide], the IC50 was 280 nM against commercial His6-hTGase 2 [4] and 209 nM in data set [1]. Also, at His6-hTGase 2 [5], the kinact/KI amounted to 4500 M⁻¹ s⁻¹. In addition, the “friction (relative inverse slope) after removal of Ca^2+ and inhibitor ("after Ca^2+ + inhibitor")” value at hTGase 2 is “significantly higher compared to “w/o” and “after Ca^2+””.
Turning to `Nc1nc2c(ncn2[C@@H]2O[C@H](COP(=O)(O)OP(=O)(O)OP(=O)(O)O)[C@@H](O)[C@H]2O)c(=O)[nH]1` [GTP], in data set [6], the “pK value of H2GTP^3− (γP-OH)” value is 6.5, the “pK value of H3GTP^2− (N7^+H)” value was 2.9 and the “pK value of HGTP^4− (N1H)” value is given as 9.6.
